Results from patent EP1175907A1, “REMEDIES” (Takara Shuzo Co, Ltd., priority 1999, dated 2000).
Values joined by “and” are separate entries in the source; they are usually repeats but may differ in a detail not shown here. Equal entries are not always repeated.

Tests used:
[1] = test system: MRC-5 cells; assay: HGF production in MRC-5 cells with cycloheximide (protein synthesis inhibitor); format: cell-based, Human; conditions: for Amount of HGF Produced (in Medium): control = 100%
Experimental: (1) Five-hundred microliters of a solution containing MRC-5 cells suspended in a DME medium containing 10% fetal bovine serum so as to have a concentration of 1 × 10^5 cells/ml were added into each well of a 48-well cell culture plate. The cells were cultured at 37°C for 24 hours in the presence of 5% CO2, and then the medium was exchanged for a DME medium containing 1% fetal bovine serum. Thereafter, cycloheximide (protein synthesis inhibitor: manufactured by nacalaitesque) was added thereto so as to have a final concentration of 0, 1, or 10 µg/ml, and a sample to be analyzed was further added thereto. Thereafter, the cells were cultured for 24 hours. This medium was collected, and the amount of HGF in the medium was determined by using the HGF ELISA Kit. The fucoidan derived from Kjellmaniella crassifolia described in item (1) of Reference Example 1 was added so as to have a final concentration of 1, 10 or 100 µg/ml. As a control, distilled water was added in the same volume as that of the sample. Each experiment was carried out twice, and an average value was taken. In Table 50, the amount of HGF produced of the control was regarded as 100%.
(2) Five-hundred microliters of MRC-5 cells (CCL171: manufactured by DAINIPPON PHARMACEUTICAL CO., LTD., code. 02-021) suspended in a DME medium containing 10% fetal bovine serum so as to have a concentration of 1 × 10^5 cells/ml were added into each well of a 48-well cell culture plate. The cells were cultured at 37°C for 24 hours in the presence of 5% CO2, and then the medium was exchanged for a DME medium containing 1% fetal bovine serum. Thereafter, cycloheximide (protein synthesis inhibitor: manufactured by nacalaitesque) was added thereto so as to have a final concentration of 0, 1, or 10 µg/ml, and a sample to be analyzed was further added thereto. The cells were then cultured for 24 hours. This medium was collected, and the amount of HGF in the medium was determined by using Quantikine Human Hepatocyte Growth Factor (HGF) ELISA Kit (manufactured by Funakoshi, Code. RS-0641-00). In addition, the cells were washed with PBS, and thereafter dissolved in 500 µl of a cytolytic buffer (50 mM HEPES, pH 7.4; 10 mM EDTA, 0.1% Triton x 100; 1 mM PMSF; 1 µg/ml pepstatin A and 1 µg/ml leupeptin). Further, in order to completely dissolve the cells, the mixture was subjected to sonication treatment, and then centrifuged, to give a supernatant (cell extract). The amount of HGF in the cell was determined in the same manner as that of the concentration of HGF in the medium. As to the amount of HGF produced, negative control was regarded as 100%. As to the inhibitory ratio, the inhibitory ratio (%) in the cycloheximide-added fraction was calculated on the basis of the amount of HGF produced when 7-12SFd-F was added alone at each concentration. 7-12SFd-F was added so as to have a final concentration of 1, 10 or 100 µg/ml. As the negative control, distilled water was added in the same volume as that of the sample. Each experiment was carried out three times, and an average value was taken. […] It was clarified from these findings that protein synthesis was involved in the induction of HGF production by 7-12SFd-F, not simply freeing of HGF from the cells.

[2] = test system: MRC-5 cells; assay: induction action for HGF production in MRC-5 cells (HGF ELISA of medium); format: cell-based, Human; conditions: 24 h, control = 100%
Experimental: (1) Five-hundred microliters each of MRC-5 cells (CCL171: manufactured by DAINIPPON PHARMACEUTICAL CO., LTD., code. 02-021) suspended in a DME medium containing 10% fetal bovine serum so as to have a concentration of 1 × 10^5 cells/ml were added into each well of a 48-well cell culture plate. The cells were cultured at 37°C for 24 hours in the presence of 5% CO2, and then the medium was exchanged for a DME medium containing 1% fetal bovine serum. […] The medium was then collected, and by using Quantikine Human Hepatocyte Growth Factor (HGF) ELISA Kit (manufactured by Funakoshi, Code. RS-0641-00), the amount of HGF in the medium was determined.
As a control, distilled water was added in the same volume as that of the sample. The amount of HGF of the control was 7.2 ng/ml. The amount of HGF produced in each sample-added group is shown in Table 1, assuming that the value of the control is 100%. Each experiment was carried out twice, and its average value was taken.

C[C@@H]1C[C@@H]([C@H](O)CC2CC(=O)NC(=O)C2)C(=O)[C@@H](C)C1 [Cycloheximide, cycloheximide]
Amount of HGF Produced (Total in Cells and in Medium) ([1]; Cycloheximide 1 µg/ml alone): 31%
Inhibitory Ratio Where Cycloheximide Non-Added Group Was Regarded as 100% (Total in Cells and in Medium) ([1]; Cycloheximide 1 µg/ml alone): 69%
Inhibitory Ratio Where Cycloheximide Non-Added Group Was Regarded as 100% (in Medium) ([1]; Cycloheximide 1 µg/ml alone): 60%
Amount of HGF Produced (in Medium) ([1]; Cycloheximide 1 µg/ml alone): 35% and 40%
Amount of HGF Produced (Total in Cells and in Medium) ([1]; Cycloheximide 10 µg/ml alone): 27%
Inhibitory Ratio Where Cycloheximide Non-Added Group Was Regarded as 100% (Total in Cells and in Medium) ([1]; Cycloheximide 10 µg/ml alone): 73%
Inhibitory Ratio Where Cycloheximide Non-Added Group Was Regarded as 100% (in Medium) ([1]; Cycloheximide 10 µg/ml alone): 60%
Amount of HGF Produced (in Medium) ([1]; Cycloheximide 10 µg/ml alone): 27% and 40%

sodium salt of sulfated 2-deoxy-glucose
Amount of HGF Produced ([2]; sample 10 µg/ml): 127%
Amount of HGF Produced ([2]; sample 100 µg/ml): 102%
Amount of HGF Produced ([2]; sample 1000 µg/ml): 239%

sodium salt of sulfated D-(+)- mannose [Sodium Salt of Sulfated Mannose]
Amount of HGF Produced ([2]; sample 1 µg/ml): 112%
Amount of HGF Produced ([2]; sample 10 µg/ml): 175%
Amount of HGF Produced ([2]; sample 100 µg/ml): 456%

sodium salt of sulfated D-(+)- xylose [Sodium Salt of Sulfated Xylose]
Amount of HGF Produced ([2]; sample 10 µg/ml): 110%
Amount of HGF Produced ([2]; sample 100 µg/ml): 112%
Amount of HGF Produced ([2]; sample 1000 µg/ml): 284%

sodium salt of sulfated D-(+)-galactose [Sodium Salt of Sulfated Galactose]
Amount of HGF Produced ([2]; sample 100 µg/ml): 166%

sodium salt of sulfated D-(+)-glucose [Sodium Salt of Sulfated Glucose]
Amount of HGF Produced ([2]; sample 1 µg/ml): 178%
Amount of HGF Produced ([2]; sample 10 µg/ml): 377%
Amount of HGF Produced ([2]; sample 100 µg/ml): 864%

sodium salt of sulfated D-glucitol [Sodium Salt of Sulfated Glucitol]
Amount of HGF Produced ([2]; sample 10 µg/ml): 112%
Amount of HGF Produced ([2]; sample 100 µg/ml): 203%
Amount of HGF Produced ([2]; sample 1000 µg/ml): 335%

sodium salt of sulfated D-talose [Sodium Salt of Sulfated Talose]
Amount of HGF Produced ([2]; sample 10 µg/ml): 112%
Amount of HGF Produced ([2]; sample 100 µg/ml): 263%
Amount of HGF Produced ([2]; sample 1000 µg/ml): 494%

sodium salt of sulfated cellobiose
Amount of HGF Produced ([2]; sample 10 µg/ml): 100%
Amount of HGF Produced ([2]; sample 100 µg/ml): 143%
Amount of HGF Produced ([2]; sample 1000 µg/ml): 546%

sodium salt of sulfated dodecyl-maltohexaose
Amount of HGF Produced ([2]; sample 10 µg/ml): 289%
Amount of HGF Produced ([2]; sample 100 µg/ml): 371%
Amount of HGF Produced ([2]; sample 1000 µg/ml): 359%

sodium salt of sulfated isomaltose
Amount of HGF Produced ([2]; sample 10 µg/ml): 134%
Amount of HGF Produced ([2]; sample 100 µg/ml): 301%
Amount of HGF Produced ([2]; sample 1000 µg/ml): 477%

sodium salt of sulfated lactose
Amount of HGF Produced ([2]; sample 1 µg/ml): 118%
Amount of HGF Produced ([2]; sample 10 µg/ml): 185%
Amount of HGF Produced ([2]; sample 100 µg/ml): 410%

sodium salt of sulfated lactulose
Amount of HGF Produced ([2]; sample 10 µg/ml): 139%
Amount of HGF Produced ([2]; sample 100 µg/ml): 376%
Amount of HGF Produced ([2]; sample 1000 µg/ml): 583%

sodium salt of sulfated maltoheptaose
Amount of HGF Produced ([2]; sample 10 µg/ml): 341%
Amount of HGF Produced ([2]; sample 100 µg/ml): 486%
Amount of HGF Produced ([2]; sample 1000 µg/ml): 706%

sodium salt of sulfated maltohexaose
Amount of HGF Produced ([2]; sample 10 µg/ml): 407%
Amount of HGF Produced ([2]; sample 100 µg/ml): 571%
Amount of HGF Produced ([2]; sample 1000 µg/ml): 761%

sodium salt of sulfated maltose
Amount of HGF Produced ([2]; sample 1 µg/ml): 142%
Amount of HGF Produced ([2]; sample 10 µg/ml): 273%
Amount of HGF Produced ([2]; sample 100 µg/ml): 439%

sodium salt of sulfated maltotriose
Amount of HGF Produced ([2]; sample 1 µg/ml): 151%
Amount of HGF Produced ([2]; sample 10 µg/ml): 286%
Amount of HGF Produced ([2]; sample 100 µg/ml): 387%

sodium salt of sulfated melibiose
Amount of HGF Produced ([2]; sample 10 µg/ml): 240%
Amount of HGF Produced ([2]; sample 100 µg/ml): 403%
Amount of HGF Produced ([2]; sample 1000 µg/ml): 667%

sodium salt of sulfated palatinose
Amount of HGF Produced ([2]; sample 10 µg/ml): 132%
Amount of HGF Produced ([2]; sample 100 µg/ml): 278%
Amount of HGF Produced ([2]; sample 1000 µg/ml): 519%

sodium salt of sulfated sucrose
Amount of HGF Produced ([2]; sample 1 µg/ml): 173%
Amount of HGF Produced ([2]; sample 10 µg/ml): 355%
Amount of HGF Produced ([2]; sample 100 µg/ml): 501%

sodium salt of sulfated trehalose
Amount of HGF Produced ([2]; sample 1 µg/ml): 277%
Amount of HGF Produced ([2]; sample 10 µg/ml): 447%
Amount of HGF Produced ([2]; sample 100 µg/ml): 421%

sodium salt of sulfated turanose
Amount of HGF Produced ([2]; sample 10 µg/ml): 127%
Amount of HGF Produced ([2]; sample 100 µg/ml): 203%
Amount of HGF Produced ([2]; sample 1000 µg/ml): 379%
